Where “and” joins values, the source holds several entries; their conditions need not be identical. Equal values may be shown once. Where a name gives a salt, the structure may show the parent alone. Read-outs that look alike come from different tables or passages of the source.
What was measured:
[1] = system: NPY-induced feeding behavior in satiated rats; experiment: NPY-induced food intake in satiated rats; type: in vivo, rat; details: for Food intake (g) mean ± S.E.M., NPY + compound: compound 10 mg/kg i.p., then 300 pmole NPY i.c.v., 4 hours after NPY
[2] = system: food intake of 24 h food-deprived rats; experiment: Food intake in food-deprived rats; type: in vivo, rat; details: 30 mg/kg i.p. after 24 h food deprivation, percentage of intake compared to control rats
human 5HT1Dβ receptor = human 5HT1Dβ receptor (Homo sapiens, UniProt P28222); experiment: Binding to human 5HT1Dβ receptor, [3H]serotonin; details: cloned human receptor; read-out: Receptor (pKi) 5HT1Dβ (converted)
human 5HT1Dβ receptor, sequence (P28222 whole entry): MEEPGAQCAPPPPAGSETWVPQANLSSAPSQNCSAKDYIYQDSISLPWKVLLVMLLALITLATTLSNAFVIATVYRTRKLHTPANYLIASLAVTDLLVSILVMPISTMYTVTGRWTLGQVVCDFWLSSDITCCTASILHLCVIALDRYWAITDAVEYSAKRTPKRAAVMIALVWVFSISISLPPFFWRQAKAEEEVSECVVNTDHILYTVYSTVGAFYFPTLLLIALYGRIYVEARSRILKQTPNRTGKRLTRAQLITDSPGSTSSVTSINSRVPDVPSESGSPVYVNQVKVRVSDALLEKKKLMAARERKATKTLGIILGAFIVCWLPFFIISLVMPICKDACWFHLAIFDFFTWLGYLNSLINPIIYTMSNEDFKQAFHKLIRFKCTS

human 5HT1F receptor = target: T1, human 5HT1F receptor (Homo sapiens, UniProt P30939); experiment: Binding to human 5HT1F receptor, [3H]serotonin
T1 sequence (P30939 1-366): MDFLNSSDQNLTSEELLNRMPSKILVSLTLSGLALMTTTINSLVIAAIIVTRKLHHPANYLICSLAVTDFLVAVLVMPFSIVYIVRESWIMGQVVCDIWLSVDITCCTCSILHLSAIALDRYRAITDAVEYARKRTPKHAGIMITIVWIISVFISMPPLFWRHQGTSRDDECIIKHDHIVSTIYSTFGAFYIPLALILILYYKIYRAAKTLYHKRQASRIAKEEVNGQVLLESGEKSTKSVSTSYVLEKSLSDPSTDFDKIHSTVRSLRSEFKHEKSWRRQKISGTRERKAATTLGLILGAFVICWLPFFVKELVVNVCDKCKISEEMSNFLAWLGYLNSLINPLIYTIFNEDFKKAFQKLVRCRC

human 5HT1E receptor = human 5HT1E receptor (Homo sapiens, UniProt P28566); experiment: Binding to human 5HT1E receptor, [3H]serotonin
human 5HT1E receptor, sequence (P28566 whole entry): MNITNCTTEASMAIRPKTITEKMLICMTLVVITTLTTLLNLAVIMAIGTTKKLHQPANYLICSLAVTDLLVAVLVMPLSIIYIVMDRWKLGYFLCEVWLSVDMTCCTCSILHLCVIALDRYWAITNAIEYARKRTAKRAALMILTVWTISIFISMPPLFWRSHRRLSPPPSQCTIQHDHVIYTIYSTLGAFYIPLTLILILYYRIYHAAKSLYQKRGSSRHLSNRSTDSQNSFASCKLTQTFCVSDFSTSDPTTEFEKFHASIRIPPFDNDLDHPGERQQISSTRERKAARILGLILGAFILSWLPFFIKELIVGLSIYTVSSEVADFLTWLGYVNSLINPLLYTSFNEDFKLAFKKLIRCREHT

human 5HT1Dα receptor = human 5HT1Dα receptor (Homo sapiens, UniProt P28221); experiment: Binding to human 5HT1Dα receptor, [3H]serotonin
human 5HT1Dα receptor, sequence (P28221 whole entry): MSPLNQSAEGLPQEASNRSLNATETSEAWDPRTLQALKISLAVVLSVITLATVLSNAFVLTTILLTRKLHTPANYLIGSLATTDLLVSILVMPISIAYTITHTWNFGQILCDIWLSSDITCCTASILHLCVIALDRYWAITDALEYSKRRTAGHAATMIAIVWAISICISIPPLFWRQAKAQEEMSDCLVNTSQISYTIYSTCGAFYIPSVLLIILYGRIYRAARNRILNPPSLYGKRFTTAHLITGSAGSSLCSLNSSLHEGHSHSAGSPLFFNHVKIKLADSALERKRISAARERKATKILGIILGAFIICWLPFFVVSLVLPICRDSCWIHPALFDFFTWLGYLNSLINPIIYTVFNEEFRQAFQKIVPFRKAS

human α2C receptor = target: T2, human α2C receptor (Homo sapiens, UniProt P18825); experiment: Binding to cloned human α2C adrenergic receptor, [3H]rauwolscine
T2 sequence (P18825 1-462): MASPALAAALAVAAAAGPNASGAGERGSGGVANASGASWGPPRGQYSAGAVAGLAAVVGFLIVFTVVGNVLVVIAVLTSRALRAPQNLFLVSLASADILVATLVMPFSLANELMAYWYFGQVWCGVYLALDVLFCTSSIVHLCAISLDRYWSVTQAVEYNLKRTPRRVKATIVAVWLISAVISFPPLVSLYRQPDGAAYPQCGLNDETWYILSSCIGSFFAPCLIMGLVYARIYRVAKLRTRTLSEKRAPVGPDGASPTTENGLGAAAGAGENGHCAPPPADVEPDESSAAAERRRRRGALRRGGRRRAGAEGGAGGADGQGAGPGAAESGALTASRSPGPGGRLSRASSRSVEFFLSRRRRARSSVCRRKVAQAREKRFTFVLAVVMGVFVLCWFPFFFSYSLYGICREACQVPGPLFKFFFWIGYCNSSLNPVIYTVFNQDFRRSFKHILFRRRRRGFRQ

human Y4 receptor = human Y4 receptor (Homo sapiens, UniProt P50391); type: binding; details: Table 14
human Y4 receptor, sequence (P50391 whole entry): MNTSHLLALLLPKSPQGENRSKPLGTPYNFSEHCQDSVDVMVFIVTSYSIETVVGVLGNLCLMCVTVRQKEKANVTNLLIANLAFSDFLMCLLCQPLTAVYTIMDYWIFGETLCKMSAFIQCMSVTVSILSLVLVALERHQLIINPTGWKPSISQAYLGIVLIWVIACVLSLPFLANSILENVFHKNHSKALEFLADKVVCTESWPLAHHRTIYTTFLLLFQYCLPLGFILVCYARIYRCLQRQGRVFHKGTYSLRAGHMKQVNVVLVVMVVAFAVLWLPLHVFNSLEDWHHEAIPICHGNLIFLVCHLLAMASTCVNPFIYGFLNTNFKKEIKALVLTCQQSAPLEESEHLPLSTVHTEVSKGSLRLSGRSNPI

human Y1 receptor = target: T3, human Y1 receptor (Homo sapiens, UniProt P25929); details: read-out: Binding Affinity (Ki (nM) vs. ^125I-PYY) Human Receptor Y1; Table 14
T3 sequence (P25929 1-384): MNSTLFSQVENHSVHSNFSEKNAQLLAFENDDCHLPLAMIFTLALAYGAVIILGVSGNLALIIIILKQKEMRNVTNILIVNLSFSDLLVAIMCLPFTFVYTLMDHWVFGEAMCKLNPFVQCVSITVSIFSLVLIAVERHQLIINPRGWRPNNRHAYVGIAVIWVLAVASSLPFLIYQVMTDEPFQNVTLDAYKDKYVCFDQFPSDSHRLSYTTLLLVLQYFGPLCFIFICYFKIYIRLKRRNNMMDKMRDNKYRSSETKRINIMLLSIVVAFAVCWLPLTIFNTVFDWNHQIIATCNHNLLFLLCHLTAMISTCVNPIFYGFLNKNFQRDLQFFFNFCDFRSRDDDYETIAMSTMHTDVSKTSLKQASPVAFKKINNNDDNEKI

human Y2 receptor = target: T4, human Y2 receptor (Homo sapiens, UniProt P49146); type: binding; details: Table 14
T4 sequence (P49146 1-381): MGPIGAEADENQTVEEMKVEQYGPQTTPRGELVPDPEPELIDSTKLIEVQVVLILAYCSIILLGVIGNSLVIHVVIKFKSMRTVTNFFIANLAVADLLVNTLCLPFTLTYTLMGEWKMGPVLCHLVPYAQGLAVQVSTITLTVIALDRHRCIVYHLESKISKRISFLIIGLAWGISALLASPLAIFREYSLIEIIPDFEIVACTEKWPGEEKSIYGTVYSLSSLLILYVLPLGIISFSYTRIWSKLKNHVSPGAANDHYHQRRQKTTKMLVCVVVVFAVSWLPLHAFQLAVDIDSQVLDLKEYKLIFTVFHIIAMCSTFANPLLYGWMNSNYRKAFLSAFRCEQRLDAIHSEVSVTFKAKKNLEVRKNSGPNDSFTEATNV

[3] = read-out: Binding Affinity (Ki (nM) vs. ^125I-PYY) Human Receptor Y4
[4] = read-out: Binding Affinity (Ki (nM) vs. ^125I-PYY) Human Receptor Y2

Ki (human 5HT1Dβ receptor)	Ki (human 5HT1F receptor)	Ki (human 5HT1E receptor)	Compound	Two-hour food intake of food-deprived rats, Mean (%) [2]	other results
≥ 5.01 µM	≥ 5.01 µM	≥ 5.01 µM	Cl.c1ccc(Nc2nc(Nc3ccccc3)c3ccccc3n2)cc1 [Compound 1, 2,4-Diphenylamino-quinazoline Hydrochloride]	34%	Food intake (g) mean ± S.E.M., NPY + compound [1]: 4.6 ± 0.6 g
≥ 5.01 µM	≥ 5.01 µM	≥ 5.01 µM	CNS(=O)(=O)Cc1ccc(Nc2nc(Nc3ccccc3)c3cc(OC)ccc3n2)cc1.Cl [Compound 10, N-Methyl-[4-(6-methoxy-4-phenylamino-quinazolin-2-ylamino)-phenyl]-methanesulfonamide Hydrochloride]	74%	Ki (human 5HT1Dα receptor): ≥ 5.01 µM
			Nc1nc(NCCCCCCNS(=O)(=O)c2cccc3ccccc23)nc2ccccc12 [Compound 2, Naphthalene-1-sulfonic Acid [6-(4-amino-quinazolin-2-ylamino)-hexyl]-amide]	42%	
	≥ 5.01 µM	≥ 5.01 µM	Cl.Nc1nc(NC[C@H]2CC[C@H](CNS(=O)(=O)c3cccc4ccccc34)CC2)nc2ccccc12 [Compound 5, trans-Naphthalene-1-sulfonic Acid {4-[(4-amino-quinazolin-2-ylamino)-methyl]-cyclohexylmethyl}-amide Hydrochloride]		Food intake (g) mean ± S.E.M., NPY + compound [1]: 4.1 ± 0.4 g
≥ 5.01 µM	≥ 5.01 µM	≥ 5.01 µM	c1ccc(Nc2nc(Nc3ccc(N4CCCCC4)cc3)nc3ccccc23)cc1 [Compound 6, 2-[4-(Piperidin-1-yl)-phenylaminol-4-phenylamino-quinazoline Dihydrochloride]	38%	Ki (human 5HT1Dα receptor): ≥ 5.01 µM; Receptor (pKi) α2c (human α2C receptor): 6.35
			Cl.Cl.O=[N+]([O-])c1ccccc1S(=O)(=O)NCC1CCC(CNCc2ccc3ccccc3n2)CC1 (centres unmarked) [Compound 26]	73%	Ki (human Y4 receptor; [3]): 19300 nM; Ki (human Y1 receptor): 23700 nM; Ki (human Y2 receptor; [4]): 58200 nM
			NPY: neuropeptide Y, species not given (Table 1, cited text); in Table 15 300 pmole porcine NPY i.c.v. [reference compound]		Food intake (g) mean ± S.E.M., NPY ([1]; 300 pmole NPY i.c.v. alone, cumulative intake 4 hours after NPY, one value per compound experiment): 7.4 ± 0.5 g and 6.8 ± 1.0 g and 5.8 ± 0.5 g and 4.9 ± 0.4 g
			Cl.O=S(=O)(NCC1CCC(CNCc2ccc3ccccc3c2)CC1)c1ccccc1C(F)(F)F (centres unmarked) [Compound 21]	80%	Ki (human Y4 receptor; [3]): 18500 nM; Ki (human Y1 receptor): 13000 nM; Ki (human Y2 receptor; [4]): 1610 nM
≥ 5.01 µM	≥ 5.01 µM	≥ 5.01 µM	CNS(=O)(=O)Cc1ccc(Nc2nc(Nc3ccccc3)c3ccccc3n2)cc1.Cl [Compound 11, N-Methyl-[4-(4-phenylamino-quinazolin-2-ylamino)-phenyl]-methanesulfonamide Hydrochloride]	15%	Ki (human 5HT1Dα receptor): ≥ 5.01 µM
			Cl.O=S(=O)(NC[C@H]1CC[C@H](CNCC2CCc3ccccc3C2)CC1)c1ccc2ccccc2c1 (some centres unmarked) [Compound 17]	27%	Food intake (g) mean ± S.E.M., NPY + compound [1]: 3.8 ± 0.4 g
≥ 5.01 µM	≥ 5.01 µM	≥ 5.01 µM	COc1ccc(Nc2nc(Nc3ccccc3)c3cccc(OC)c3n2)cc1.Cl [Compound 9, 8-Methoxy-2-(4-methoxy-phenylamino)-4-phenylamino-quinazoline Hydrochloride]	40%	Ki (human 5HT1Dα receptor): ≥ 5.01 µM
			Cl.O=S(=O)(NCC1CCC(CNCc2cccc3ccccc23)CC1)c1ccccc1C(F)(F)F (centres unmarked) [Compound 23]	58%	Ki (human Y4 receptor; [3]): 21500 nM; Ki (human Y1 receptor): 14500 nM; Ki (human Y2 receptor; [4]): 617 nM

Compound	Ki (human 5HT1Dβ receptor)	Ki (human 5HT1F receptor)	Ki (human 5HT1E receptor)	Two-hour food intake of food-deprived rats, Mean (%) [2]	other results
O=S(=O)(NC[C@H]1CC[C@H](CNC(CO)Cc2ccc(Cl)cc2)CC1)c1cccc2ccccc12 (some centres unmarked) [Compound 25]		≥ 5.01 µM	≥ 5.01 µM	32%	Ki (human Y4 receptor): 13100 nM; Ki (human Y2 receptor): 851 nM
CC(=O)O[C@H]1CC[C@H](Nc2nc(Nc3ccccc3)c3ccccc3n2)CC1 [Compound 7, trans-2-(4-Acetoxy-cvclohexylamino)-4-phenylamino-quinazoline Hydrochloride]	≥ 5.01 µM	≥ 5.01 µM	≥ 5.01 µM		
